Test results: ChEMBL document CHEMBL3576853, “Discovery of InhA inhibitors with anti-mycobacterial activity through a matched molecular pair approach” (Eur J Med Chem, 2015)

What was measured:
[1] = test system: Mycolicibacterium smegmatis; assay: Anti-mycobacterial activity against Mycobacterium smegmatis assessed as bacterial growth inhibition after 24 hrs by microplate reader analysis; format: functional, organism-based
[2] = test system: Mycobacterium tuberculosis; assay: Inhibition of Mycobacterium tuberculosis recombinant InhA assessed as enzyme activity measured as NADH oxidation using 2-trans-decenyl CoA as substrate at 50 uM by TECAN spectrophotometer analysis; set-up: scale not given: the % may be the effect or the level left
Escherichia coli [3] = assay: Toxicity against Escherichia coli BL21 assessed as bacterial growth inhibition at 50 uM after 8 hrs by microplate reader analysis
Escherichia coli [4] = assay: Toxicity against Escherichia coli JM109 assessed as bacterial growth inhibition at 50 uM after 8 hrs by microplate reader analysis; format: organism-based; conditions: in vivo
MDCK = assay: Cytotoxicity against dog MDCK cells at 50 uM after 1 day by WST-8 assay; format: cell-based, Canis lupus familiaris; conditions: 24 h
SH-SY5Y = assay: Cytotoxicity against human SH-SY5Y cells at 50 uM after 2 days by WST-8 assay; format: cell-based; conditions: 48 h

Structure (SMILES) | IC50 [1] | Activity [2] | Activity (Escherichia coli [3]) | Activity (Escherichia coli [4]) | Activity (MDCK) | Activity (SH-SY5Y)
NNC(=O)c1ccncc1 [ISONIAZID] | 9.8 µM |  |  |  |  | 
O=C(c1ccco1)N1CCN(Cc2cccc(Oc3ccccc3)c2)CC1 | 12 µM | 65.1% |  |  |  | 
Sc1nnc(-c2ccco2)n1/N=C/c1cccc(Oc2ccccc2)c1 |  | 53.5% | Non-toxic | Non-toxic | Non-toxic | 
Oc1cc(Cl)ccc1Oc1ccc(Cl)cc1Cl |  | 16.3% |  |  |  | 
COc1ccc(OCC(=O)N2CCN(Cc3cccc(Oc4ccccc4)c3)CC2)cc1 |  | 44.7% | Non-toxic | Non-toxic | Non-toxic | Toxic
COc1ccccc1C(=O)N1CCN(Cc2cccc(Oc3ccccc3)c2)CC1.O=C(O)C(=O)O | 25.7 µM | 37.7% | Non-toxic | Non-toxic | Non-toxic | 
O=C(c1ccccc1)N1CCN(Cc2cccc(Oc3ccccc3)c2)CC1 | 22.9 µM | 21.9% | Non-toxic | Non-toxic | Non-toxic | 
O=C(O)C(=O)O.O=C(c1cccnc1)N1CCN(Cc2cccc(Oc3ccccc3)c2)CC1 |  | 34% | Non-toxic | Non-toxic | Non-toxic | 
O=C(Cc1ccccc1)N1CCN(Cc2cccc(Oc3ccccc3)c2)CC1 |  | 65.6% | Non-toxic | Non-toxic | Non-toxic | 
COc1cccc(C(=O)N2CCN(Cc3cccc(Oc4ccccc4)c3)CC2)c1OC | 28.1 µM | 65.1% | Non-toxic | Non-toxic | Non-toxic | 
O=C(COc1ccccc1)N1CCN(Cc2cccc(Oc3ccccc3)c2)CC1 | 21.4 µM | 69.3% | Non-toxic | Non-toxic | Non-toxic | 
O=C(c1cccc(Oc2ccccc2)c1)N1CCN(C(=O)c2ccco2)CC1 |  | 69.3% | Non-toxic | Non-toxic | Non-toxic | 
O=C(O)C(=O)O.O=C(c1ccccc1F)N1CCN(Cc2cccc(Oc3ccccc3)c2)CC1 | 17.3 µM | 21.9% | Non-toxic | Non-toxic | Non-toxic | 
